Experimental data published in BigSolDB 2.1.

`COc1ccccc1N1CCN(CC(O)COc2cccc3ccccc23)CC1` (centres undefined) showed a solubility (mole fraction) (in acetone, 273.15 K) of 0.00318, a solubility (mole fraction) (in acetone, 278.15 K) of 0.00399 and a solubility (mole fraction) (in acetone, 283.15 K) of 0.00481. It also gave a solubility (mole fraction) (in acetone, 288.15 K) of 0.00579, a solubility (mole fraction) (in acetone, 293.15 K) of 0.00676 and a solubility (mole fraction) (in acetone, 298.15 K) of 0.00782. For the same molecule, the solubility (mole fraction) (in acetone, 303.15 K) was 0.00894, the solubility (mole fraction) (in acetone, 308.15 K) was 0.0102 and the solubility (mole fraction) (in acetone, 313.15 K) was 0.0118. For the same molecule, the solubility (mole fraction) (in acetonitrile, 273.15 K) was 0.00113, the solubility (mole fraction) (in acetonitrile, 278.15 K) was 0.00132 and the solubility (mole fraction) (in acetonitrile, 283.15 K) was 0.00156. It also gave a solubility (mole fraction) (in acetonitrile, 288.15 K) of 0.00182, a solubility (mole fraction) (in acetonitrile, 293.15 K) of 0.00208 and a solubility (mole fraction) (in acetonitrile, 298.15 K) of 0.00244. For the same molecule, the solubility (mole fraction) (in acetonitrile, 303.15 K) was 0.0028, the solubility (mole fraction) (in acetonitrile, 308.15 K) was 0.00321 and the solubility (mole fraction) (in acetonitrile, 313.15 K) was 0.00372. It also gave a solubility (mole fraction) (in ethanol, 273.15 K) of 0.000817, a solubility (mole fraction) (in ethanol, 278.15 K) of 0.000955 and a solubility (mole fraction) (in ethanol, 283.15 K) of 0.00112. It also gave a solubility (mole fraction) (in ethanol, 288.15 K) of 0.00131, a solubility (mole fraction) (in ethanol, 293.15 K) of 0.00152 and a solubility (mole fraction) (in ethanol, 298.15 K) of 0.00175. The solubility (mole fraction) (in ethanol, 303.15 K) was 0.00198, the solubility (mole fraction) (in ethanol, 308.15 K) was 0.00229 and the solubility (mole fraction) (in ethanol, 313.15 K) was 0.00266. It also gave a solubility (mole fraction) (in ethyl acetate, 273.15 K) of 0.00438, a solubility (mole fraction) (in ethyl acetate, 278.15 K) of 0.00503 and a solubility (mole fraction) (in ethyl acetate, 283.15 K) of 0.00585. It also gave a solubility (mole fraction) (in ethyl acetate, 288.15 K) of 0.0067, a solubility (mole fraction) (in ethyl acetate, 293.15 K) of 0.00768 and a solubility (mole fraction) (in ethyl acetate, 298.15 K) of 0.0087. For the same molecule, the solubility (mole fraction) (in ethyl acetate, 303.15 K) was 0.00998, the solubility (mole fraction) (in ethyl acetate, 308.15 K) was 0.0112 and the solubility (mole fraction) (in ethyl acetate, 313.15 K) was 0.0126. For the same molecule, the solubility (mole fraction) (in methanol, 273.15 K) was 0.00056, the solubility (mole fraction) (in methanol, 278.15 K) was 0.000636 and the solubility (mole fraction) (in methanol, 283.15 K) was 0.000719. It also gave a solubility (mole fraction) (in methanol, 288.15 K) of 0.000822, a solubility (mole fraction) (in methanol, 293.15 K) of 0.000922 and a solubility (mole fraction) (in methanol, 298.15 K) of 0.00104. It also gave a solubility (mole fraction) (in methanol, 303.15 K) of 0.00118, a solubility (mole fraction) (in methanol, 308.15 K) of 0.00133 and a solubility (mole fraction) (in methanol, 313.15 K) of 0.0015. For the same molecule, the solubility (mole fraction) (in toluene, 273.15 K) was 0.00534, the solubility (mole fraction) (in toluene, 278.15 K) was 0.00633 and the solubility (mole fraction) (in toluene, 283.15 K) was 0.00727. It also gave a solubility (mole fraction) (in toluene, 288.15 K) of 0.00847, a solubility (mole fraction) (in toluene, 293.15 K) of 0.00978 and a solubility (mole fraction) (in toluene, 298.15 K) of 0.0113. For the same molecule, the solubility (mole fraction) (in toluene, 303.15 K) was 0.0129, the solubility (mole fraction) (in toluene, 308.15 K) was 0.0149 and the solubility (mole fraction) (in toluene, 313.15 K) was 0.017.
